Experimental findings from ChEMBL document CHEMBL1201862, “PubChem BioAssay data set” (2004) are described below.

Assay [1] has as its target Glutathione-S-transferase (Schistosoma japonicum, UniProt Q26513). In words: biotin-GST/anti-GST TR-FRET signal inhibitors, dose response, artefact control for Vif-APOBEC3G degradation inhibitor project, biochemical (AID 1117362). The class given is functional.
For assay [2], the target named is Voltage-gated N-type calcium channel alpha-1B subunit/Amyloid beta A4 precursor protein-binding family A member 1 (Homo sapiens, UniProt Q00975+Q02410). The class given is protein assay.
The target in assay [3] is Intestinal-type alkaline phosphatase (Mus musculus, UniProt P24822). Put plainly: PubChem AID 488785. The class given is functional.
Assay [4] concerns the target T1, 1-phosphatidylinositol 4,5-bisphosphate phosphodiesterase gamma-1 (Homo sapiens, UniProt P19174).
T1 sequence (P19174 whole entry): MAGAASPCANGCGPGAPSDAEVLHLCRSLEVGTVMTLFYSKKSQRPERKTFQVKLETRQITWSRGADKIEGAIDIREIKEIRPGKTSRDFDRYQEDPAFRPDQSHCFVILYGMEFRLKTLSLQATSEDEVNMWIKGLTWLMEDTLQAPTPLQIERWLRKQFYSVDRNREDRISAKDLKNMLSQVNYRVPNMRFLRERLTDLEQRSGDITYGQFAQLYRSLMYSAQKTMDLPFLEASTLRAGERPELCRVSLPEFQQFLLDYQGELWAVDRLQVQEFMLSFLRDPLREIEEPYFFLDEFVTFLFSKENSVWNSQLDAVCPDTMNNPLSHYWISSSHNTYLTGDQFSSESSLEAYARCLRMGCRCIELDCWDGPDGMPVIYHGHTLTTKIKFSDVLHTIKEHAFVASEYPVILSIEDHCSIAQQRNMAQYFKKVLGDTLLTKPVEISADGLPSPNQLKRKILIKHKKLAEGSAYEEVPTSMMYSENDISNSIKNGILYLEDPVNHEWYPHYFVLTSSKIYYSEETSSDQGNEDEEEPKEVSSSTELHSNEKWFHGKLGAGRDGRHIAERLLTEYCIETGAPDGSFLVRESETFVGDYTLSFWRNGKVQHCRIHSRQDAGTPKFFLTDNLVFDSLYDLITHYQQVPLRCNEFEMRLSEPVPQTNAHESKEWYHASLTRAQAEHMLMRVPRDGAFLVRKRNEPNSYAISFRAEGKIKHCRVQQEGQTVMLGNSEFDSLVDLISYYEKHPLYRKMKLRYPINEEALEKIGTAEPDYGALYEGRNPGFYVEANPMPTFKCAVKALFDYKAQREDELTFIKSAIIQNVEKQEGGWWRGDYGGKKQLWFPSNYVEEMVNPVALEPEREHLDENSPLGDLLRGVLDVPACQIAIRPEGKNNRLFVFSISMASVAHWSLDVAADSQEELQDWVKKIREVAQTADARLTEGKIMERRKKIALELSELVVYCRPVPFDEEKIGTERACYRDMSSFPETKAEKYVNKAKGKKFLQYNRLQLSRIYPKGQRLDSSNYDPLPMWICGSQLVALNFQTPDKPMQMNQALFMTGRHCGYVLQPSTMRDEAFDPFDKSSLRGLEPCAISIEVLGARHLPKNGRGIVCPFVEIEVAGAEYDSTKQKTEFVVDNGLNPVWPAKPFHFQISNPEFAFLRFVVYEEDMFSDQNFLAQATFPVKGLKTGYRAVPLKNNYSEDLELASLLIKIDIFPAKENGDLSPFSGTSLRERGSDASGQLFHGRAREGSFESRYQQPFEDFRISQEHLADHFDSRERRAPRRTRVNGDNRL
In words: Counterscreen for inhibitors of phospholipase C isozymes (PLC-B3): Fluorescence-based biochemical high throughput dose response assay to identify inhibitors of phospholipase C isozymes (PLC-gamma1).

The target in assay [5] is T2, 1-phosphatidylinositol 4,5-bisphosphate phosphodiesterase beta-3 (Homo sapiens, UniProt Q01970).
T2 sequence (Q01970 whole entry): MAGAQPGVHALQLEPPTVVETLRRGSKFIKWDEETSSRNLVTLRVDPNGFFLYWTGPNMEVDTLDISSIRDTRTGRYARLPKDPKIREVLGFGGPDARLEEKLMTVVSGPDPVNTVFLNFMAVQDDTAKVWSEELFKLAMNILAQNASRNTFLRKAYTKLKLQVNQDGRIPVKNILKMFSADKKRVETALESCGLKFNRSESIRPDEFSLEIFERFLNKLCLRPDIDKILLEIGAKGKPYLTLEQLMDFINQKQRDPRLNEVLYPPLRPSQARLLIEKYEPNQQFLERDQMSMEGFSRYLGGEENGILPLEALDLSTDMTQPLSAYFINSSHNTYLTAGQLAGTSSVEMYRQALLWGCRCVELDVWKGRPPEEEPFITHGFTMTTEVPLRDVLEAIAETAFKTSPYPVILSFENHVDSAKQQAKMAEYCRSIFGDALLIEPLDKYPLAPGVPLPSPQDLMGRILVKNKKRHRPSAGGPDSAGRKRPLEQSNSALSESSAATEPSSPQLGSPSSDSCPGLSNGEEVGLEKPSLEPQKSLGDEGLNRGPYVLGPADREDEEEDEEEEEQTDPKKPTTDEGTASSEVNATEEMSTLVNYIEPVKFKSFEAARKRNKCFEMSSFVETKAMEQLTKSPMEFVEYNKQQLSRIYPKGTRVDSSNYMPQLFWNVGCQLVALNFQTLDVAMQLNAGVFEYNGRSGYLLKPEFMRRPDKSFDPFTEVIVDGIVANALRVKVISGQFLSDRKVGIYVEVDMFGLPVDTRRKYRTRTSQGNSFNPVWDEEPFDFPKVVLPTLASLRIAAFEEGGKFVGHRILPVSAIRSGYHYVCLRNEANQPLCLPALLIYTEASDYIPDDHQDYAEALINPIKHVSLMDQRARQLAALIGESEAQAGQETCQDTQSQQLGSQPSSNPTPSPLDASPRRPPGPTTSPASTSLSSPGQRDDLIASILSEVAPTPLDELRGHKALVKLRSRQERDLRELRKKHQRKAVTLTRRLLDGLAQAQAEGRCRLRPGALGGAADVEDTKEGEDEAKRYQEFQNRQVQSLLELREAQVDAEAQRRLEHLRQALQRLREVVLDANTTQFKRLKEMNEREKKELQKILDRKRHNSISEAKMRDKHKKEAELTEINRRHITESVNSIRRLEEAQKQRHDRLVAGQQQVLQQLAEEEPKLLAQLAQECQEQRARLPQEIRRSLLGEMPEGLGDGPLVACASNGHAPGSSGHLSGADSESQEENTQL
Put plainly: Fluorescence-based biochemical high throughput dose response assay to identify inhibitors of phospholipase C isozymes (PLC-B3).

Assay [6] addresses Glucose-6-phosphate 1-dehydrogenase (Homo sapiens, UniProt P11413). Put plainly: human G6PD enzyme inhibitors, dose response, selectivity assay for P. falciparum G6PD inhibitor project, biochemical, fluorescence (AID 504792). The class given is functional.

Molecules are shown by their SMILES. The source made the active and inactive calls. Some results are limits rather than exact numbers.

Intestinal-type alkaline phosphatase, sequence (P24822 whole entry): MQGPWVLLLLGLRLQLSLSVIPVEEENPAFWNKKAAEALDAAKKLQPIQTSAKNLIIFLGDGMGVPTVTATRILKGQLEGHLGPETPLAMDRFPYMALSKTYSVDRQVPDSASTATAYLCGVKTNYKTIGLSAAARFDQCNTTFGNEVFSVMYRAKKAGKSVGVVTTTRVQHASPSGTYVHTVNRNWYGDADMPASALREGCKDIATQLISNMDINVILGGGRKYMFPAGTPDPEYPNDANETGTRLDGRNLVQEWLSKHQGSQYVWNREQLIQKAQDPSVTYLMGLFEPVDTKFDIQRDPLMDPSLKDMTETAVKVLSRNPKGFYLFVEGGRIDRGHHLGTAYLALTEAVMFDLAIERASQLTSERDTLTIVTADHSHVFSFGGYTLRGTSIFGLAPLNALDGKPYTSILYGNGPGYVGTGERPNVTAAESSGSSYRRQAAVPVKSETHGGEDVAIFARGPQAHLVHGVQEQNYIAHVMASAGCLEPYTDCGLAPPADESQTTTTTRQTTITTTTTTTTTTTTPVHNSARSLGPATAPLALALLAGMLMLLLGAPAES
Glutathione-S-transferase, sequence (Q26513 whole entry): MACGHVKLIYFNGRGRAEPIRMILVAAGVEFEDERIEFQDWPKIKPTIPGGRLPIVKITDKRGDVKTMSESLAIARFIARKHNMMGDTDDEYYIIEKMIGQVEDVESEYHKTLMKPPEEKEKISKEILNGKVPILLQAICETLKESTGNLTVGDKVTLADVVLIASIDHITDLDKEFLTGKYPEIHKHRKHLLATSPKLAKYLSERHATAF
Glucose-6-phosphate 1-dehydrogenase, sequence (P11413 whole entry): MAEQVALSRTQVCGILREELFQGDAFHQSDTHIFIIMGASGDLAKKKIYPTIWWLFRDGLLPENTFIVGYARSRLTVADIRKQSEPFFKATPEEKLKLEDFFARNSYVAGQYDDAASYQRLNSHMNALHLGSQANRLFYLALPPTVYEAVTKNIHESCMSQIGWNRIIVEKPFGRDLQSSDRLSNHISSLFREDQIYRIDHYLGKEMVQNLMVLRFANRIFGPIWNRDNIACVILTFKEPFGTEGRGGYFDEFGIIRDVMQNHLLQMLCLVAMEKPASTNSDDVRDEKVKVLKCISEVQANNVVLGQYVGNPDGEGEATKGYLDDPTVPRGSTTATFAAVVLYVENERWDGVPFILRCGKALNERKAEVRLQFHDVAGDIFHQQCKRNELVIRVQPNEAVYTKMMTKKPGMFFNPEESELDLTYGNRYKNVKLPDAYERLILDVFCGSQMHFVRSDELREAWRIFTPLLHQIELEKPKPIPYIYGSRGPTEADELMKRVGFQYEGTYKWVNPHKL
Voltage-gated N-type calcium channel alpha-1B subunit/Amyloid beta A4 precursor protein-binding family A member 1, sequence (Q00975 whole entry): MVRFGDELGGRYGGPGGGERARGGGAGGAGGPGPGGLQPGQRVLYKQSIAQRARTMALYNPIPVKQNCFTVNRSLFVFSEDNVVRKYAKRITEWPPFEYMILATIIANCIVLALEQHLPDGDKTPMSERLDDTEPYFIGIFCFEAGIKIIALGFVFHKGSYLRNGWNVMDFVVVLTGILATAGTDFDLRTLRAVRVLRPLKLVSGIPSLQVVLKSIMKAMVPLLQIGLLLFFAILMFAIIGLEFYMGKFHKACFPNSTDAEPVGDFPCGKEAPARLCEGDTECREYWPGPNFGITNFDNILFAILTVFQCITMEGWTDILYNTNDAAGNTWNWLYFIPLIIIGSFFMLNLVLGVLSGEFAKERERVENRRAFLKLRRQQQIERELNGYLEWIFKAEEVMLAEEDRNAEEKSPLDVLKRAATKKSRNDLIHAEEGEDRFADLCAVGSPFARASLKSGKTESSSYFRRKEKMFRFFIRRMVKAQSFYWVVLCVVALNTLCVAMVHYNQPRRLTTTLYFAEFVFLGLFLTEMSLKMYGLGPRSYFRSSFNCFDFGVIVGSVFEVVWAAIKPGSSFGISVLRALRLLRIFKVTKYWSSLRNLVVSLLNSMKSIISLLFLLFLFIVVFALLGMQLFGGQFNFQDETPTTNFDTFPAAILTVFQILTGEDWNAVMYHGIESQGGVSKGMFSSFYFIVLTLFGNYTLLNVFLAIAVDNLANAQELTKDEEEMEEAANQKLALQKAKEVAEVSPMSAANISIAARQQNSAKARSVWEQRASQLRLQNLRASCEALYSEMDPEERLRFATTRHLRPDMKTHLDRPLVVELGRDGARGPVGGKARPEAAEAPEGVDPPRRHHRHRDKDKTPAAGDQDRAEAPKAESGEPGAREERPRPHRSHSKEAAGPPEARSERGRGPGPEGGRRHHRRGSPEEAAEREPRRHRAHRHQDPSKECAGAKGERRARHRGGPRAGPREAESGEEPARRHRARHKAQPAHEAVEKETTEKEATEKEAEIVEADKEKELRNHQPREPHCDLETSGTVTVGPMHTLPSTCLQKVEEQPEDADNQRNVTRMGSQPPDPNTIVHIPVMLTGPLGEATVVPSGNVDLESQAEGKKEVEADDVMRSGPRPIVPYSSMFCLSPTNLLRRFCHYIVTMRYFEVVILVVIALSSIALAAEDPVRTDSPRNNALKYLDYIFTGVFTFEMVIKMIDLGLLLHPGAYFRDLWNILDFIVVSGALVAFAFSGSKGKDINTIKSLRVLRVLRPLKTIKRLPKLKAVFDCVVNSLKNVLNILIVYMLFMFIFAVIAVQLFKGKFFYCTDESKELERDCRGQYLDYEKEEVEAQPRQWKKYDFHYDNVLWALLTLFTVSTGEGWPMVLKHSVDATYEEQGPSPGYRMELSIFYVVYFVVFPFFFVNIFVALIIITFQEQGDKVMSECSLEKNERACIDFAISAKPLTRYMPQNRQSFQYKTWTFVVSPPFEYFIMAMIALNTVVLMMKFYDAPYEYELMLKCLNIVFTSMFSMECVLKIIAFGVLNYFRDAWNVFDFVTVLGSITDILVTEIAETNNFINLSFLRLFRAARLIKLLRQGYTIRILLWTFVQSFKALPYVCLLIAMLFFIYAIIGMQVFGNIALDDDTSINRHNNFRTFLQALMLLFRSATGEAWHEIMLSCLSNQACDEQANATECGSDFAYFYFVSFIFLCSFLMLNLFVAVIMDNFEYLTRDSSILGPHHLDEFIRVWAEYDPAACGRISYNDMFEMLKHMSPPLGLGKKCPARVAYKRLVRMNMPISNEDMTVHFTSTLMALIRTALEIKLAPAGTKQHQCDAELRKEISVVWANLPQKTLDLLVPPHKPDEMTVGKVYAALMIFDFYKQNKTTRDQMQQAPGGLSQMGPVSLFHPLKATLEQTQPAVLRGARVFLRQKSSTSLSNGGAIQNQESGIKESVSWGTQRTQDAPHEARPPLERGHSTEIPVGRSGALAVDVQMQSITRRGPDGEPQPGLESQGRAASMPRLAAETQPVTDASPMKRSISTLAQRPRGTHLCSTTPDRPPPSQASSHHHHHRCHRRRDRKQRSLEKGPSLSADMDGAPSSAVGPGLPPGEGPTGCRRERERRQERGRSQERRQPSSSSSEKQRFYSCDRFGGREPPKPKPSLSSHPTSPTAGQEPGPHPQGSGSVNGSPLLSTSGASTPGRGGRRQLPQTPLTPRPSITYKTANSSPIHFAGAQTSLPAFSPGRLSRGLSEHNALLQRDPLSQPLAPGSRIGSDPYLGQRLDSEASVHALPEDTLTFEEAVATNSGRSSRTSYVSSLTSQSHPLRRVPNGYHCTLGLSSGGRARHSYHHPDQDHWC
Voltage-gated N-type calcium channel alpha-1B subunit/Amyloid beta A4 precursor protein-binding family A member 1, sequence (Q02410 whole entry): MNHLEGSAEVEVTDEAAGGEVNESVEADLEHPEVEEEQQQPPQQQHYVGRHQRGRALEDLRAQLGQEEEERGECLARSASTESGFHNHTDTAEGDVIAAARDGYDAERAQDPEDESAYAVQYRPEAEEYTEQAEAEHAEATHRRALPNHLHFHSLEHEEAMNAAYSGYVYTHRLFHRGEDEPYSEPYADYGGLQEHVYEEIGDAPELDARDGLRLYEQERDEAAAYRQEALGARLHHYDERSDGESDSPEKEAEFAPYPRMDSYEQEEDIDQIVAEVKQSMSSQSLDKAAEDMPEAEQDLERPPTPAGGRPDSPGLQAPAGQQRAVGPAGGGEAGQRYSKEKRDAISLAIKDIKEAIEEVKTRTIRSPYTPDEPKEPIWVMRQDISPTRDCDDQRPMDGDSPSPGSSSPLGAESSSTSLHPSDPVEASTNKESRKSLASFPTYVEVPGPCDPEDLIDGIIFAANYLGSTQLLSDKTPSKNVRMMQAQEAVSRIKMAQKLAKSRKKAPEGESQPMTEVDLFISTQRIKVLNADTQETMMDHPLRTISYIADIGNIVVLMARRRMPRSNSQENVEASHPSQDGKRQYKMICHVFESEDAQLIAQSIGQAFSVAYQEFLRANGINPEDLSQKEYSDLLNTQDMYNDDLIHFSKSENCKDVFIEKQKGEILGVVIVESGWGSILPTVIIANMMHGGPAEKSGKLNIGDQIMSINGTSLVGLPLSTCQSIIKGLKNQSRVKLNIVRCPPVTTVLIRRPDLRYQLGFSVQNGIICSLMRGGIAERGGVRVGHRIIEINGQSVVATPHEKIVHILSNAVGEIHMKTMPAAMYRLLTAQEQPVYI

For `CNCc1ccccc1Sc1ccc(O)c(O)c1`, the IC50 in assay [1] is 16 µM (active).

On to `O=C(O)c1cc(N2N=C(C(F)(F)F)/C(=C/C=C/c3ccco3)C2=O)ccc1Cl`, for which the IC50 in assay [2] was 24.6 µM (active).

As to `O=C(/C=C/c1ccco1)NC(=S)Nc1cccc(C(=O)O)c1`, the IC50 in assay [3] was 9.52 µM (active); in assay [4], > 122 µM (inactive); in assay [5] it was > 122 µM (inactive).

On to `Cc1cc(C)c(S(=O)(=O)Nc2cc(SCC(=O)O)c(O)c3ccccc23)cc1C`, for which, in assay [6], the IC50 was 8.73 µM (active).
